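Five compound concentrations were applied to cells in 96-well plates for 48 hours; endpoints were derived by simple linear interpolation of the resulting dose-response curve. GI50 marks 50% less growth.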 Activity calls are given as the source filed them. Rule as the data show it: active = GI50 up to about 1.1 µM and inactive = higher.
How the values were obtained:
Test in all cases: NCI anticancer screen, dose series, 48 h
[1] = tested on: MDA-MB-435
[2] = tested on: ACHN
[3] = tested on: UACC-257
[4] = tested on: HOP-62
[5] = tested on: RPMI-8226
[6] = tested on: M14
[7] = tested on: NCI-H460
[8] = tested on: BT-549
[9] = tested on: IGROV-1
[10] = tested on: LOX IMVI
[11] = tested on: CCRF-CEM
[12] = tested on: SN12C
[13] = tested on: MDA-N
[14] = tested on: HCC 2998
[15] = tested on: DMS-114
[16] = tested on: DMS-273
[17] = tested on: LXFL 529
[18] = tested on: KM-20L2
[19] = tested on: 786-0
[20] = tested on: HOP-18

Row | SMILES | GI50 [1] | GI50 [2] | GI50 [3] | GI50 [4] | GI50 [5] | GI50 [6] | GI50 [7] | GI50 [8] | GI50 [9] | GI50 [10] | GI50 [11] | GI50 [12] | GI50 [13] | GI50 [14] | GI50 [15] | GI50 [16] | GI50 [17] | GI50 [18] | GI50 [19] | GI50 [20]
1 | CN(CCO)Cc1ncccc1O | > 100 µM (inactive) | > 100 µM (inactive) | > 100 µM (inactive) | > 100 µM (inactive) | > 100 µM (inactive) | > 100 µM (inactive) | > 100 µM (inactive) | > 100 µM (inactive) | > 100 µM (inactive) | > 100 µM (inactive) | 68.5 µM (inactive) |  |  |  |  |  |  |  |  | 
2 | CON(C)C(C#N)=C(C#N)C#N | > 10 µM (inactive) | > 10 µM (inactive) |  | > 10 µM (inactive) | > 10 µM (inactive) | > 10 µM (inactive) | > 10 µM (inactive) |  | > 10 µM (inactive) | > 10 µM (inactive) | > 10 µM (inactive) | > 10 µM (inactive) | > 10 µM (inactive) | > 10 µM (inactive) |  |  |  |  |  | 
3 | O=C1c2ccccc2N(O)C1(c1ccccc1)C1CCCC=C1N1CCOCC1 (configuration not stated) |  | > 100 µM (inactive) | 70.6 µM (inactive) | > 100 µM (inactive) | 17.1 µM (inactive) | > 100 µM (inactive) | > 100 µM (inactive) |  | > 100 µM (inactive) | 71.1 µM (inactive) | 40.7 µM (inactive) | > 100 µM (inactive) |  | > 100 µM (inactive) | 50.1 µM (inactive) | > 100 µM (inactive) | 68.5 µM (inactive) | > 100 µM (inactive) |  | 
4 | C=CCCN1CCc2c([nH]c3ccccc23)C1C(=O)O (configuration not stated) |  | > 100 µM (inactive) | > 100 µM (inactive) | > 100 µM (inactive) |  | > 100 µM (inactive) | > 100 µM (inactive) |  | > 100 µM (inactive) | > 100 µM (inactive) | 96.2 µM (inactive) | > 100 µM (inactive) |  | > 100 µM (inactive) | 63.4 µM (inactive) | > 100 µM (inactive) | > 100 µM (inactive) | > 100 µM (inactive) |  | 
5 | COc1cccc(OCC(=N/NC(=O)c2ccncc2)/N=C/c2ccncc2)c1 | > 100 µM (inactive) | > 100 µM (inactive) | > 100 µM (inactive) | > 100 µM (inactive) | > 100 µM (inactive) | > 100 µM (inactive) | > 100 µM (inactive) | > 100 µM (inactive) | > 100 µM (inactive) | > 100 µM (inactive) | > 100 µM (inactive) | > 100 µM (inactive) | > 100 µM (inactive) | > 100 µM (inactive) |  |  |  |  | > 100 µM (inactive) | 
6 | CC1NC(=O)C(C)C(c2ccccc2)N(N=O)C1c1ccccc1 (configuration not stated) |  |  | > 100 µM (inactive) | > 87.9 µM (inactive) | 33.6 µM (inactive) |  | > 61.7 µM (inactive) |  | > 81.5 µM (inactive) | > 69.5 µM (inactive) | 55.7 µM (inactive) | > 100 µM (inactive) |  | 52.4 µM (inactive) | 48.5 µM (inactive) | 63 µM (inactive) |  | > 100 µM (inactive) |  | 96.8 µM (inactive)
7 | CC(=O)Nc1ccc(C(=O)NN2C(=O)C(Cl)/C2=C/c2ccco2)cc1 (configuration not stated) |  | > 100 µM (inactive) | > 100 µM (inactive) | > 100 µM (inactive) | > 100 µM (inactive) |  | > 100 µM (inactive) |  | > 100 µM (inactive) |  | > 100 µM (inactive) |  |  | > 100 µM (inactive) |  |  | > 100 µM (inactive) |  |  | > 100 µM (inactive)
8 | CC1=CC(C)C(C)N(CC2=NCCN2)c2ccccc21 (configuration not stated) | 46.5 µM (inactive) | 97.9 µM (inactive) | 19.5 µM (inactive) | > 100 µM (inactive) | 38.7 µM (inactive) | 17.8 µM (inactive) | 60.8 µM (inactive) | > 100 µM (inactive) | > 100 µM (inactive) | 38.1 µM (inactive) | 45.6 µM (inactive) | > 100 µM (inactive) | 52.5 µM (inactive) | 17.9 µM (inactive) |  |  |  |  | 83.2 µM (inactive) | 
9 | CC(=O)OCc1c(C)c2ccccc2n1C(C)=O |  | 25.3 µM (inactive) | 30.3 µM (inactive) | 63.1 µM (inactive) |  | > 100 µM (inactive) |  |  | 36.8 µM (inactive) | 45 µM (inactive) | 18.1 µM (inactive) | 35.7 µM (inactive) |  | 95.3 µM (inactive) | 22.6 µM (inactive) | 25.1 µM (inactive) |  | 53 µM (inactive) | > 100 µM (inactive) | 27.7 µM (inactive)
10 | Cn1cc(-c2csc(-c3cn(C)c4ccccc34)n2)c2ccccc21 | 26.4 µM (inactive) | 21.6 µM (inactive) | 48.6 µM (inactive) | 17.6 µM (inactive) | 20.7 µM (inactive) | 26.7 µM (inactive) | 26.5 µM (inactive) | 56.4 µM (inactive) | 27 µM (inactive) | 36.4 µM (inactive) | > 100 µM (inactive) | 47.8 µM (inactive) | 24.9 µM (inactive) |  |  |  |  |  | 17.2 µM (inactive) | 
11 | Cn1c2ccc([N+](=O)[O-])cc2c(=O)n1Cc1ccccc1F | 74.3 µM (inactive) | 53.3 µM (inactive) | 42.4 µM (inactive) | 57 µM (inactive) | > 100 µM (inactive) | 25.4 µM (inactive) | 40.1 µM (inactive) | > 100 µM (inactive) | 35.1 µM (inactive) | 31.9 µM (inactive) | 46.6 µM (inactive) | > 100 µM (inactive) | 27.4 µM (inactive) | 70.8 µM (inactive) |  |  |  |  | 49.5 µM (inactive) | 
12 | ClCc1ccc2ccc3ccc(CCl)nc3c2n1 |  |  | 1.29 µM (inactive) | 4.29 µM (inactive) | 1.46 µM (inactive) |  | 4.62 µM (inactive) |  | 1.7 µM (inactive) | 1.56 µM (inactive) | 1.8 µM (inactive) | 2.36 µM (inactive) |  | 4.11 µM (inactive) | 1.87 µM (inactive) | 2.2 µM (inactive) |  | 4.1 µM (inactive) |  | 2.65 µM (inactive)
13 | C=C1C(=O)OC2CC1CCC1(C)OC1CCC(C)=CCCC2(C)O (configuration not stated) |  |  | 4.78 µM (inactive) | 10.3 µM (inactive) | 1.51 µM (inactive) |  | 3.06 µM (inactive) |  | 7.18 µM (inactive) | 2.24 µM (inactive) | 1.03 µM (active) | 5.08 µM (inactive) |  | 7.01 µM (inactive) | 2.74 µM (inactive) | 3.1 µM (inactive) |  | 2.82 µM (inactive) |  | 1.47 µM (inactive)
14 | CC1=C2C3OC(=O)C(C)C3CCC2(C)C=C/C1=N\c1ccccc1 (configuration not stated) |  |  | > 100 µM (inactive) | > 100 µM (inactive) |  |  | > 100 µM (inactive) |  | > 100 µM (inactive) | > 100 µM (inactive) | > 100 µM (inactive) | > 100 µM (inactive) |  | > 100 µM (inactive) | > 100 µM (inactive) | > 100 µM (inactive) |  | > 100 µM (inactive) |  | > 57.1 µM (inactive)
15 | Cc1cc(C(=O)NCCN(C)C)c2nc3ccccc3cc2c1 |  |  | 2.07 µM (inactive) | 1.68 µM (inactive) | 1.55 µM (inactive) |  | 0.372 µM (active) |  | 2.39 µM (inactive) | 1.27 µM (inactive) | 1.36 µM (inactive) | 1.59 µM (inactive) |  | 3.67 µM (inactive) | 1.04 µM (active) | 2.31 µM (inactive) |  | 0.729 µM (active) |  | 1.74 µM (inactive)
16 | CC1CC/C(=C\c2ccc(N(C)C)cc2)C2=C1C(c1ccc(N(C)C)cc1)NC(=S)N2 (configuration not stated) | > 100 µM (inactive) | > 100 µM (inactive) | > 100 µM (inactive) |  | > 100 µM (inactive) | > 100 µM (inactive) |  | > 100 µM (inactive) | > 100 µM (inactive) | > 100 µM (inactive) | > 100 µM (inactive) | > 100 µM (inactive) | > 100 µM (inactive) |  |  |  |  |  | > 100 µM (inactive) | 
17 | CN(C)C(=O)NCCN1CCCCCc2ccccc21 | 53 µM (inactive) | > 100 µM (inactive) | 76 µM (inactive) | > 100 µM (inactive) | > 100 µM (inactive) | 46.3 µM (inactive) | > 100 µM (inactive) |  | > 100 µM (inactive) | > 100 µM (inactive) | 71.8 µM (inactive) | > 100 µM (inactive) | > 100 µM (inactive) | > 100 µM (inactive) |  |  |  |  |  | 
18 | CC[C@H](O)[C@H](C)C=C1SCCCS1 | > 100 µM (inactive) | > 100 µM (inactive) | > 100 µM (inactive) | > 100 µM (inactive) | > 100 µM (inactive) | > 100 µM (inactive) |  | > 100 µM (inactive) | > 100 µM (inactive) | > 100 µM (inactive) | > 100 µM (inactive) | > 100 µM (inactive) | > 100 µM (inactive) | > 100 µM (inactive) |  |  |  |  | > 100 µM (inactive) | 
19 | CCOC(=O)c1cc(Br)c(-c2cc(C)no2)[nH]1 | 14.3 µM (inactive) | 28.8 µM (inactive) | 28.1 µM (inactive) |  | 13.9 µM (inactive) | 39.7 µM (inactive) | 21.1 µM (inactive) | 31.2 µM (inactive) |  | 31.3 µM (inactive) |  | 32 µM (inactive) | 23.2 µM (inactive) |  |  |  |  |  | 43.7 µM (inactive) | 
20 | O=C1C(Cl)N(c2ccccc2[N+](=O)[O-])C1c1c[nH]c2ccccc12 (configuration not stated) |  |  | > 100 µM (inactive) | > 100 µM (inactive) | > 100 µM (inactive) | > 100 µM (inactive) | > 100 µM (inactive) |  | > 100 µM (inactive) |  | > 100 µM (inactive) | > 100 µM (inactive) |  |  | > 100 µM (inactive) |  | > 100 µM (inactive) | > 100 µM (inactive) |  | 
21 | O=C1C=CC(=O)c2c(Cl)ccc(O)c21 |  |  | 16.1 µM (inactive) | > 100 µM (inactive) | 5.66 µM (inactive) |  | > 65.9 µM (inactive) |  | 14.6 µM (inactive) | 18.2 µM (inactive) |  | 21.1 µM (inactive) |  | > 100 µM (inactive) | 16.8 µM (inactive) | 16.2 µM (inactive) |  | 13.8 µM (inactive) |  | 19.1 µM (inactive)

Reference: ChEMBL document CHEMBL1201862, “PubChem BioAssay data set” (2004)
